In ChEMBL document CHEMBL4177613, “Development of photoaffinity derivatives of the antitumor macrolide aplyronine A, a PPI-inducer between actin and tubulin” (Bioorg Med Chem, 2017):
pIC50: −log10 of the molar value. Activity calls are given as the source filed them. No cut-off for these calls is given here.

Tests used:
HeLa S3 = test: Cytotoxicity against human HeLaS3 cells after 96 hrs by MTT assay; format: functional, cell-based; settings: HeLa S3, 96 h
Oryctolagus cuniculus [1] = organism: Oryctolagus cuniculus; test: Binding affinity to rabbit skeletal muscle actin preincubated for 60 mins followed by UV irradiation for 15 mins in presence of aplyronine A by SDS-PAGE analysis
[2] = Binding affinity to rabbit skeletal muscle actin/pig brain tubulin preincubated for 60 mins followed by UV irradiation for 15 mins in presence of aplyronine A by SDS-PAGE analysis
Oryctolagus cuniculus [3] = organism: Oryctolagus cuniculus; test: Inhibition of rabbit skeletal muscle F-actin polymerization at 3 uM after 1 hr by SDS-PAGE assay
[4] = Binding affinity to rabbit skeletal muscle actin/porcine brain tubulin preincubated for 30 mins followed by UV irradiation of 0.8 mW for 15 mins measured after 30 mins by TAMRA azide-based fluorescence SDS-PAGE analysis
Oryctolagus cuniculus [5] = organism: Oryctolagus cuniculus; test: Binding affinity to rabbit skeletal muscle actin preincubated for 30 mins followed by UV irradiation of 0.8 mW for 15 mins measured after 30 mins by TAMRA azide-based fluorescence SDS-PAGE analysis
Sus scrofa = organism: Sus scrofa; test: Binding affinity to pig brain tubulin preincubated for 30 mins followed by UV irradiation of 0.8 mW for 15 mins measured after 30 mins by TAMRA azide-based fluorescence SDS-PAGE analysis

Row | SMILES | pIC50 (HeLa S3) | Activity (Oryctolagus cuniculus [1]) | Activity [2] | inhibition (Oryctolagus cuniculus [3]) | Activity [4] | Activity (Oryctolagus cuniculus [5]) | Activity (Sus scrofa)
1 | COCC(C(=O)O[C@@H]1C/C=C/C=C/C(=O)O[C@H]([C@@H](C)[C@@H](O)[C@@H](C)CC[C@@H](OC(=O)[C@H](C)N(C)C)[C@H](C)[C@H](OC(C)=O)[C@H](C)CC=NOCC(=O)NCCCC[C@H](NC(=O)c2ccc(C3(C(F)(F)F)N=N3)cc2)C(=O)NCCCOCCOCCOCCCNC(=O)CCCC[C@@H]2SC[C@@H]3NC(=O)N[C@@H]32)C/C=C/[C@H](OC)C[C@H](C)C/C=C(\C)[C@@H](OC)CC[C@@H](C)[C@@H](O)[C@@H]1C)N(C)C (stereo not given in full) | 8.92 |  |  |  |  |  | 
2 | COCC(C(=O)O[C@@H]1C/C=C/C=C/C(=O)O[C@H]([C@@H](C)[C@@H](O)[C@@H](C)CC[C@@H](OC(=O)[C@H](C)N(C)C)[C@H](C)[C@H](OC(C)=O)[C@H](C)CC=NOCC(=O)NCCCC[C@H](NC(=O)CCC(=O)NCCCOCCOCCOCCCNC(=O)c2ccc(C3(C(F)(F)F)N=N3)cc2)C(=O)NCCCCCCNC(=O)c2ccc(-c3c4ccc(N(C)C)cc4[o+]c4cc(N(C)C)ccc34)c(C(=O)[O-])c2)C/C=C/[C@H](OC)C[C@H](C)C/C=C(\C)[C@@H](OC)CC[C@@H](C)[C@@H](O)[C@@H]1C)N(C)C (stereo not given in full) | 7.55 | Active | inactive |  |  |  | 
3 | COCC(C(=O)O[C@@H]1C/C=C/C=C/C(=O)O[C@H]([C@@H](C)[C@@H](O)[C@@H](C)CC[C@@H](OC(=O)[C@H](C)N(C)C)[C@H](C)[C@H](OC(C)=O)[C@H](C)/C=C/N(C)C=O)C/C=C/[C@H](OC)C[C@H](C)C/C=C(\C)[C@@H](OC)CC[C@@H](C)[C@@H](O)[C@@H]1C)N(C)C (stereo not given in full) | 11.00 |  |  | Active | inactive |  | 
4 | COCC(C(=O)O[C@@H]1C/C=C/C=C/C(=O)O[C@H]([C@@H](C)[C@@H](O)[C@@H](C)CC[C@@H](OC(=O)[C@H](C)N(C)C)[C@H](C)[C@H](OC(C)=O)[C@H](C)CC=NOCC(=O)NCCCC[C@H](NC(=O)c2ccc(C3(C(F)(F)F)N=N3)cc2)C(=O)NCCCCCCNC(=O)c2ccc(-c3c4ccc(N(C)C)cc4[o+]c4cc(N(C)C)ccc34)c(C(=O)[O-])c2)C/C=C/[C@H](OC)C[C@H](C)C/C=C(\C)[C@@H](OC)CC[C@@H](C)[C@@H](O)[C@@H]1C)N(C)C (stereo not given in full) | 7.89 | Active | inactive |  |  |  | 
5 | C#CCNC(=O)[C@H](CCCCNC(=O)CON=CC[C@@H](C)[C@@H](OC(C)=O)[C@@H](C)[C@@H](CC[C@H](C)[C@H](O)[C@H](C)[C@@H]1C/C=C/[C@H](OC)C[C@H](C)C/C=C(\C)[C@@H](OC)CC[C@@H](C)[C@@H](O)[C@H](C)[C@H](OC(=O)C(COC)N(C)C)C/C=C/C=C/C(=O)O1)OC(=O)[C@H](C)N(C)C)NC(=O)CCC(=O)NCCCOCCOCCOCCCNC(=O)c1ccc(C2(C(F)(F)F)N=N2)cc1 (stereo not given in full) | 8.92 |  |  | Active | inactive | Active | inactive
6 | COCC(C(=O)O[C@@H]1C/C=C/C=C/C(=O)O[C@H]([C@@H](C)[C@@H](O)[C@@H](C)CC[C@@H](OC(=O)[C@H](C)N(C)C)[C@H](C)[C@H](OC(C)=O)[C@H](C)CC=NOCC(=O)NCCCC[C@H](NC(=O)CCC(=O)NCCCOCCOCCOCCCNC(=O)c2ccc(C3(C(F)(F)F)N=N3)cc2)C(=O)NCCCOCCOCCOCCCNC(=O)CCCC[C@@H]2SC[C@@H]3NC(=O)N[C@@H]32)C/C=C/[C@H](OC)C[C@H](C)C/C=C(\C)[C@@H](OC)CC[C@@H](C)[C@@H](O)[C@@H]1C)N(C)C (stereo not given in full) | 9.27 |  |  |  | Active |  | Active
7 | C#CCNC(=O)[C@H](CCCCNC(=O)CON=CC[C@@H](C)[C@@H](OC(C)=O)[C@@H](C)[C@@H](CC[C@H](C)[C@H](O)[C@H](C)[C@@H]1C/C=C/[C@H](OC)C[C@H](C)C/C=C(\C)[C@@H](OC)CC[C@@H](C)[C@@H](O)[C@H](C)[C@H](OC(=O)C(COC)N(C)C)C/C=C/C=C/C(=O)O1)OC(=O)[C@H](C)N(C)C)NC(=O)c1ccc(C2(C(F)(F)F)N=N2)cc1 (stereo not given in full) | 9.12 |  |  |  |  | Active | 
